The record followed here is patent publication US11572590B2, “Methods for evaluating tumor cell spheroids using 3D microfluidic cell culture device” (Dana-Farber Cancer Institute, Inc., priority 2017, dated 2023).

Holding throughout (assay): SelectScreen Kinase Profiling, single point inhibition and IC50 for off-target kinases
What all share (assay type): biochemical

The target in assay [1] is off-target kinases (Homo sapiens, UniProt P78362). The settings on record: SRPK2; Cmpd1 1000 μM; ATP Km app; ZLYTE.
The target in assay [2] is T1, off-target kinases (Homo sapiens, UniProt P52333).
T1 sequence (P52333 1-1124): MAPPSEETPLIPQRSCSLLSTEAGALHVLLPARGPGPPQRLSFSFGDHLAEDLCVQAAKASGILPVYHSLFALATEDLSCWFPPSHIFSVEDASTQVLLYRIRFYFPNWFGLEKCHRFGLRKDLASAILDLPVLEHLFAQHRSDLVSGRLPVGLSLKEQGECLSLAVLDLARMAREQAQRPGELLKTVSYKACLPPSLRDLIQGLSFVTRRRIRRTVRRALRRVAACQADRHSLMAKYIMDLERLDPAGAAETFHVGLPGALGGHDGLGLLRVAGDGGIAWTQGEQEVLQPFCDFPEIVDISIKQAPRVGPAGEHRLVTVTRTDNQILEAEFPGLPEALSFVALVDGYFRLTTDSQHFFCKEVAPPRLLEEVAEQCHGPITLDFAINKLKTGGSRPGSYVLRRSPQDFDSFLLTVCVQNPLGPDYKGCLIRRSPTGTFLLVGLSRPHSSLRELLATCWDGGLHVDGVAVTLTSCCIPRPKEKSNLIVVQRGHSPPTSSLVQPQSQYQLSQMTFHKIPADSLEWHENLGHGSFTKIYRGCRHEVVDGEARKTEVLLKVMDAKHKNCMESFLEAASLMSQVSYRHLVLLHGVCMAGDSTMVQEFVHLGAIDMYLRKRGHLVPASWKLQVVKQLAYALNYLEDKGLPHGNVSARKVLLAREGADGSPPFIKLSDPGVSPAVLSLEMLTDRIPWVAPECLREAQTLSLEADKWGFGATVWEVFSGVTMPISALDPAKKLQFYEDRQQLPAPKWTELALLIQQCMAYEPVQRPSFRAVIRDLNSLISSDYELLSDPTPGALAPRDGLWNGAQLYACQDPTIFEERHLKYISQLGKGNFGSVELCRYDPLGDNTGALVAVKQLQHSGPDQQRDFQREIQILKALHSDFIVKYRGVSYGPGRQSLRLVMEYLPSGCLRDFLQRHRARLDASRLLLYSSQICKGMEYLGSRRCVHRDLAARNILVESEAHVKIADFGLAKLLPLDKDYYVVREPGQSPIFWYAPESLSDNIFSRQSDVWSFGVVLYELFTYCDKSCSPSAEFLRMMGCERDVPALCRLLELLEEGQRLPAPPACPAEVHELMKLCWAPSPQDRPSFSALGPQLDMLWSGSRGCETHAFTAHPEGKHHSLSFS
The settings on record: JAK3, ATP Km app, ZLYTE.

In assay [3] the target is off-target kinases (Homo sapiens, UniProt P04626).
Assay [4] addresses off-target kinases (Homo sapiens, UniProt P00533, L861Q). The settings on record: EGFR (ErbB1) L861Q (mutant), ZLYTE, ATP Km app.
For assay [5], the target named is off-target kinases (Homo sapiens, UniProt P08631). The settings on record: HCK, ZLYTE, ATP Km app.

Read-outs that look alike come from different tables or passages of the source.

Chain of off-target kinases (Homo sapiens, UniProt P08631) (P08631 whole entry): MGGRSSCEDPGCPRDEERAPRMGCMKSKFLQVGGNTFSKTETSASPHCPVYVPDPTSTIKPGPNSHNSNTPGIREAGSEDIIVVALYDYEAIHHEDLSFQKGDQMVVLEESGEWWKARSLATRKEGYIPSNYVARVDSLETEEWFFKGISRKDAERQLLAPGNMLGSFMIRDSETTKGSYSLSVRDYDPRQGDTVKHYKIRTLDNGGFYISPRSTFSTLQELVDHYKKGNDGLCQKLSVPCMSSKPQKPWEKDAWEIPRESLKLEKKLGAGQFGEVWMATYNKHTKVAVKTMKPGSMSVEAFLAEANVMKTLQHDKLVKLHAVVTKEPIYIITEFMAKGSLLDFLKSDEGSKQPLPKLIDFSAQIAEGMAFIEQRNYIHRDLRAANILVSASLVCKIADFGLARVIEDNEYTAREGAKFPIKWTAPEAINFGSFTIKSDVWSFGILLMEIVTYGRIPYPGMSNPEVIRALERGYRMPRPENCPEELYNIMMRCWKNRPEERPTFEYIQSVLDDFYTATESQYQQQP
Chain of off-target kinases (Homo sapiens, UniProt P00533, L861Q) (P00533 25-1210 L861Q): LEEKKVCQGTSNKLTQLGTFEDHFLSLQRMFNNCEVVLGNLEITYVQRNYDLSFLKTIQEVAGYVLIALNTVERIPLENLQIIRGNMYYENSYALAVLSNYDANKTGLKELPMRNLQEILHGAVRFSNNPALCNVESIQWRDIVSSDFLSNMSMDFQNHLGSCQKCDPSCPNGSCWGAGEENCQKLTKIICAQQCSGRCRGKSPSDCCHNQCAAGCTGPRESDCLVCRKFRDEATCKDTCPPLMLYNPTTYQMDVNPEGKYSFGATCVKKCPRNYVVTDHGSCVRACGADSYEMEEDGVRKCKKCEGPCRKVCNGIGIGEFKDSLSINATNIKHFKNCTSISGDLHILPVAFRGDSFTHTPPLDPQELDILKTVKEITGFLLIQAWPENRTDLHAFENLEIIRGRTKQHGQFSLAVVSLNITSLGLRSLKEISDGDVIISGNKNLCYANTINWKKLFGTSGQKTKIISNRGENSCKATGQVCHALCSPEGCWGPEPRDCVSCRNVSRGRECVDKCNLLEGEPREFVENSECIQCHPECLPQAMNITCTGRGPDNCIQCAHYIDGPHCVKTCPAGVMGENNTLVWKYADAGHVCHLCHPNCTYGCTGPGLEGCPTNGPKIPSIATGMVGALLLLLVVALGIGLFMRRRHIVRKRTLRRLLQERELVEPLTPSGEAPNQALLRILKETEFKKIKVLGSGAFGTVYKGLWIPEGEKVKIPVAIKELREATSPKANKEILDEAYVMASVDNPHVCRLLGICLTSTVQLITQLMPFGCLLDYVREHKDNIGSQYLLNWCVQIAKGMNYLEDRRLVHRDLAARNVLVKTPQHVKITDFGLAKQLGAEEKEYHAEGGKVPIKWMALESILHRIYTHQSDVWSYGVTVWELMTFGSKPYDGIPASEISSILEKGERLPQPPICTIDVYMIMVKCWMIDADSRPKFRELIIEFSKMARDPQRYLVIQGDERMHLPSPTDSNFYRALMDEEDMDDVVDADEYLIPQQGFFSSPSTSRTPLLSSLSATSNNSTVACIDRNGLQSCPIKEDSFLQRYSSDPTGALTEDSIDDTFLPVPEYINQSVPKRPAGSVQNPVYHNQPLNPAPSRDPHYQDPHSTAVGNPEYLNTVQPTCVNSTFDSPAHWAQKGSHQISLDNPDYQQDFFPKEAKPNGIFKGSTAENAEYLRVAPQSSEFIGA
Chain of off-target kinases (Homo sapiens, UniProt P04626) (P04626 23-1255): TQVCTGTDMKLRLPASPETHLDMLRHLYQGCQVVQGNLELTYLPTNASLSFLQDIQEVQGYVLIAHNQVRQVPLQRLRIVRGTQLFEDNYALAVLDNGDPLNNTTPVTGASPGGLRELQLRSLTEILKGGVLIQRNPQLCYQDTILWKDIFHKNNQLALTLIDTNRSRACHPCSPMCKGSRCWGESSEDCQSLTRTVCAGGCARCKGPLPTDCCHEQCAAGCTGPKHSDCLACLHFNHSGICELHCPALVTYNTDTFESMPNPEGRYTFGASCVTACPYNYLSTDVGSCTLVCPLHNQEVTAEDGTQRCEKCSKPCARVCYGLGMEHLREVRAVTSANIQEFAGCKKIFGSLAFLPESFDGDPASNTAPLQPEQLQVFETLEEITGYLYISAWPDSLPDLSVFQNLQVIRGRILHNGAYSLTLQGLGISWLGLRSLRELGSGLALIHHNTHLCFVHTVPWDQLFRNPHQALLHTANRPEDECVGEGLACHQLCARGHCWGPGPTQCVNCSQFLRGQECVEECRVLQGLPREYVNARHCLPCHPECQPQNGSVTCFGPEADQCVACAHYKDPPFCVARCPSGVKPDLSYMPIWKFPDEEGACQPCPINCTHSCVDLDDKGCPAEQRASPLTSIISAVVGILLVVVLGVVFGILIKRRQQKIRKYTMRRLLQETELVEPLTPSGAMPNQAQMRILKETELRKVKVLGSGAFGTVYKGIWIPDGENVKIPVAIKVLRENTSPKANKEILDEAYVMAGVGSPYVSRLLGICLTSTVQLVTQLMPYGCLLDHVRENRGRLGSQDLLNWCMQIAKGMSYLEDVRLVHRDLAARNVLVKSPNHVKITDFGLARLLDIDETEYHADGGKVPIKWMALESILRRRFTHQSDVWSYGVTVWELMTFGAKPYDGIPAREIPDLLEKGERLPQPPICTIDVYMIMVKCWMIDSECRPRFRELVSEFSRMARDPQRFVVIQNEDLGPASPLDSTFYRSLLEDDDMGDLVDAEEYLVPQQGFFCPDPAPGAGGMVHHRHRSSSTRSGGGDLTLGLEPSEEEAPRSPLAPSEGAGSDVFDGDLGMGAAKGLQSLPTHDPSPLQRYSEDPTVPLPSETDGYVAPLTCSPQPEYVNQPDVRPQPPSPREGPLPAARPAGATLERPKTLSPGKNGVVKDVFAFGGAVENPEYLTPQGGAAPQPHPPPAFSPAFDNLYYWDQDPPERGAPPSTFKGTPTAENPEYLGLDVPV
Chain of off-target kinases (Homo sapiens, UniProt P78362) (P78362 whole entry): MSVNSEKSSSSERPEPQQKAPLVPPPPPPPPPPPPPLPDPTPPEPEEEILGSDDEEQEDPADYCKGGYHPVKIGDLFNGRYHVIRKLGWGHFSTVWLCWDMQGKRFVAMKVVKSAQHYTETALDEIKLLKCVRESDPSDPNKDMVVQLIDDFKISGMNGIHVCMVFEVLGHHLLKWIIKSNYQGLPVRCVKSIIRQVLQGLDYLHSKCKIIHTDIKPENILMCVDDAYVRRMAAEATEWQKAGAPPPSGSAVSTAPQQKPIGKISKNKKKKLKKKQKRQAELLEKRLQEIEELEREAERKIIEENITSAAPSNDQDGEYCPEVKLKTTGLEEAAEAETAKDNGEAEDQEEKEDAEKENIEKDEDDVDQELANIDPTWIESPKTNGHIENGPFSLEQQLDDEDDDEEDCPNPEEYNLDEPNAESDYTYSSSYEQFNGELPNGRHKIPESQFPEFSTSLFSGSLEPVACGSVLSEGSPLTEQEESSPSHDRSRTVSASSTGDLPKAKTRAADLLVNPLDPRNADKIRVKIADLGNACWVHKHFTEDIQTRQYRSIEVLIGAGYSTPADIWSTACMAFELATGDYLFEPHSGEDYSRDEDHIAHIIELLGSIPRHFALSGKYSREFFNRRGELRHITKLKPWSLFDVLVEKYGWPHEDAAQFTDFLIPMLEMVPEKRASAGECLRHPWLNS

As a reminder, the inhibition is the change of the read-out against control, counted positive when it falls. As for `N#Cc1cc(-c2ncnc(Nc3ccc(N4CCN(C5COC5)CC4)cc3)n2)ccc1OC1CCOCC1` [Compound 1, 5-(4-((4-(4-(oxetan-3-yl)piperazin-1-yl)phenyl)amino)-1,3,5-triazin-2-yl)-2-((tetrahydro-2H-pyran-4-yl)oxy)benzonitrile], the “% Inhibition 1” value in assay [1] is recorded as −2%. Moreover, in assay [1], the “% Inhibition 2” value was −4%. For the same compound, in assay [1], the “% Inhibition Avg” value is on record as −3%. Besides, the inhibition in assay [2] (read-out: % Inhibition 1) is 73%; in assay [2] (read-out: % Inhibition 2), 73%; in assay [2] (read-out: % Inhibition Avg), 73%; in assay [3] (ERBB2 (HER2), ZLYTE, ATP Km app, read-out: % Inhibition 1) it was 0%; in assay [3] (ERBB2 (HER2), ZLYTE, ATP Km app, read-out: % Inhibition 2), -3%; in assay [3] (read-out: % Inhibition Avg), -1%. Also, the inhibition worked out at 6% in assay [4] (read-out: % Inhibition 1); 5% in assay [4] (read-out: % Inhibition 2); 5% in assay [4] (read-out: % Inhibition Avg); 26% in assay [5] (read-out: % Inhibition 1); 28% in assay [5] (read-out: % Inhibition 2); 27% in assay [5] (read-out: % Inhibition Avg).
